Laboratory results published in patent publication US20220356163A1, “SMALL MOLECULE INHIBITORS OF Id PROTEINS” (MEMORIAL SLOAN KETTERING CANCER CENTER, priority 2019, published 2022).

Key:
[1] = system: PDX-IBT; test: MTT assay, PDX-IBT; assay type: cell-based; conditions: 24 h, PDX cell line, read-out: IC50 value after 24 hours of treatment
Source text: The 4T1 murine mammary tumor cell line and nine breast cancer cell lines representing the major breast cancer subtypes (ER+, HER2+, and TNBC) including MDA-MB-157, MDA-MB-436, MDA-MB-231, MDA-MB-453, MDA-MB-361, BT-474, SK-BR-3, MCF-7 and T47-D will be grown in RPMI or DMEM (Dulbecco's Modified Eagle Medium) media supplemented with 10% FBS (fetal bovine serum), 1% penicillin-streptomycin and 1% L-Glutamine. Patient derived xenograft cell lines BR7, BR11, and IBT will be established directly from breast cancer bone metastases specimens surgically resected from patients with informed consent. BR7 and BR11 specimens will be obtained from ER positive (HER2 negative and PR negative) metastatic breast cancer patients, while the IBT specimen will be obtained from a metastatic, triple negative breast cancer patient. Fresh tumor tissues will be quickly washed with ice cold PBS and minced into about 1-3 mm pieces in MEM medium (without FBS) using sterile razor blades. […] The cells will be treated with either 100 μM DMSO, AGX51, or a compound of the present technology such as AGX-A. The cell morphology and growth will be monitored daily for 1 week by microscopy for changes in morphology or cell death. […] Absorbance will then measured at 570 nm using a plate reader (Synergy 2, BioTek). […]

[2] = system: choroidal neovascularization; test: Laser-induced choroidal neovascularization (CNV) model of AMD; assay type: in vivo, mouse
Source text: Mouse mode/s of ocular neovascularization. CNV was induced as previously described. Tobe et al., Am. J. Pathol., 153, 1641-1646 (1998). Briefly, 4-6 week-old female Id1^−/− or Id3^−/− mice and littermate control Id1^+/+ or Id3^+/+ mice (all in C57BL/6 background) had laser-induced rupture of Bruch's membrane at three locations in each eye and after 14 days mice were euthanized, eyes were removed, and choroidal flat mounts were stained with FITC-labeled Griffonia simplicifolia lectin (Vector Laboratories, Burlingame, Calif.) which selectively stains vascular cells (n=12 mice per group). Flat mounts were examined by fluorescence microscopy and the area of each CNV was measured by image analysis with Image-Pro Plus software (Media Cybernetics, Silver Spring, Md.) by an observer masked with respect to experimental groups. In other experiments, wild type 4-6 week-old, female, C57BL/6 mice had rupture of Bruch's membrane in each eye followed by intravitreal injection of 1-30 μg of AGX51 (racemic, E1 or E2) or vehicle in one eye immediately and after 7 days or mice were given twice daily i.p. injections of 500 μg of AGX51 or vehicle for 14 days (n=7-10 mice per group). The area of CNV was measured 14 days after rupture of Bruch's membrane. For Aflibercept and AGX-A treatment experiments, rupture of Bruch's membrane was carried out and then mice were treated with 40 μg of Aflibercept, 10 μg of AGX51E2, 1-5 μg of AGX51, 1-5 μg of AGX-A, DMSO or combinations. The mice were 4-6 week-old female C57BL/6. After 14 days, the mice were euthanized and CNV was measured as described above.

[3] = biological target: T1, Id1 (Mus musculus, UniProt P20067); test: Electrophoretic mobility shift assay (EMSA): ability of Id1 to antagonize E47 binding to DNA; assay type: biochemical; conditions: comparison between compounds
T1 construct: in the presence or absence of purified full-length Id1; made in house; host or cells: bacteria (Id1: Rosetta 2 (DE3))
T1 sequence (P20067 1-148 isoform P20067-2): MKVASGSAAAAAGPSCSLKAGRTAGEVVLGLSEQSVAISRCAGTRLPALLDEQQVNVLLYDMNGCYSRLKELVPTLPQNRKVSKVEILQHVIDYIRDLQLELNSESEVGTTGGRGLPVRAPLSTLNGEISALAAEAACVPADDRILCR
Procedure: Electrophoretic mobility shift assays. To test the activity of compounds identified in the in silico screen, full-length E47 was purified from bacteria and mixed with a P^32 labeled E-box sequence derived from the muscle creatine kinase (MCK) enhancer, BSA, DTT, poly dI-dC, salmon sperm, and HeLa nuclear extract, in the presence or absence of purified full-length Id1. Increasing concentrations of the various test compounds dissolved in DMSO or DMSO alone were added to the reaction mixes for 30 minutes, resolved on a 5% non-denaturing polyacrylamide gel, and autoradiographed. Electrophoretic mobility shift assays (EMSAs) were carried out on whole cell lysates from AGX51-treated cells and the EMSA was performed as described previously (Tournay and Benezra, Mol Cell Biol, 16: 2418-30 (1996)).
Pesce and Benezra, Mol. Cell. Biol., 13, 7874-7880 (1993). An in silico screen of 2,234,000 compounds for crevice binding was performed, yielding 3,000 hits that were pared for drug-like properties. 364 candidates emerged and were tested for their capacity to inhibit the ability of Id1 to antagonize E47 binding to DNA by EMSAs as previously described (Benezra, 1994). […] This anti-Id1 activity was most likely due to the perturbation of the Id1-E47 interaction but other explanations, such as the binding of an Id1-E47 complex to DNA in the presence of compound, are possible. […]

Row | Compound | IC50 [1] | CNV area relative to vehicle control ([2]; i.p. 50 μL of 10 mg/mL bid, day 14) | CNV area ([2]; intravitreal 5 μg, days 1 and 7, p<0.05) | Id1 immunofluorescence in CNV regions ([2]; intravitreal injection) | CNV area relative to vehicle ([2]; twice daily i.p. injections (~30 mg/kg), p<0.05) | CNV area relative to vehicle ([2]; two intravitreal injections of 10 μg (2 h and 7 days), day 14, p<0.05) | relative potency in EMSA [3] | CNV area, AGX-A vs AGX51 ([2]; intravitreal 1 μg dose)
1 | CCC(=O)N(CCC(c1ccc2c(c1)OCO2)c1ccccc1OC)Cc1ccccc1 (racemic) [AGX51, N-(3-(benzo[d][1,3]dioxol-5-yl)-3-(2-methoxyphenyl)propyl)-N-benzylpropionamide] | 12 µM | reduced CNV area significantly | effective at significantly reducing CNV | no Id1 positive cells | significantly reduced CNV | significantly suppressed CNV | more potent than B | 
2 | COc1ccccc1C(CCNCc1ccccc1)c1ccc(OC(C)C)cc1 (centres unmarked) [AGX-A, N-benzyl-3-(4-isopropoxyphenyl)-3-(2-methoxyphenyl)propan-1-anine] |  |  |  |  |  |  |  | performed better than AGX51
